Drawing on ChEMBL document CHEMBL3352493, “Xylarianaphthol-1, a novel dinaphthofuran derivative, activates p21 promoter in a p53-independent manner” (Bioorg Med Chem Lett, 2014), this text covers Activity and fold change (FC) for 1 compound.

Calls of active or inactive are those of the source. The rule behind the calls is not given here.

The subject of test [1] is MG-63. The test is described as follows: Induction of p53-independent p21 promoter activation (unknown origin) transfected in human MG63 cells expressing luciferase reporter gene by luciferase reporter gene assay. Type of test: cell-based. Background: In a reporter assay the amount or activity of a reporter protein is the signal.
The subject of test [2] is MG-63. The test is described as follows: Induction of p53-independent p21 promoter activation (unknown origin) transfected in human MG63 cells expressing luciferase reporter gene at 0.3 uM by luciferase reporter gene assay relative to control. Type of test: cell-based.
In test [3] the test system is MG-63. The test is described as follows: Increase in p21 protein expression in wild-type human MG63 cells at 0.01 to 0.3 uM by Western blotting method. Type of test: functional, cell-based.

As to `COc1cccc2c1c(O)cc1oc3c(ccc4cccc(O)c43)c12`, the Activity entry in the test on MG-63 [1] is “Dose-dependent effect”. Also, the fold change (FC) in the test on MG-63 [2] came to 2.5. Also, in the test with MG-63 [3], the outcome was Active.
